Measured values reported in patent US11160820B2 (Dalian Minzu University, priority 2019, dated 2021).
Where two headings read alike, the source gives them in different places.

Tests used:
[1] = system: mice with LPS/D-GalN-induced acute hepatic failure
Experimental: (§1) The mice of the blank group and the model group were given the equivalent dose of normal saline by gavage for three consecutive days before the establishment of the model. […] Upon the third day of gavage, the mice of the blank group were given the equivalent dose of normal saline by intraperitoneal injection, and the mice of the model group and the groups with low, medium and high doses were given the LPS and the D-GalN by intraperitoneal injection. After 6 hours of modeling, blood and liver tissues were taken. Whole blood was centrifuged (4000 rmp×10 min), and then the supernatant was taken. The liver tissue was washed with normal saline, one-fourth of the large liver lobe was stored in a formalin solution, and the rest of the liver was stored in a refrigerator of −80° C.
The liver tissue was soaked in a 10% formalin solution, washed under running water, dehydrated with ethanol solutions of low to high concentrations, xylene solution, embedded with paraffin, sectioned, stained with H&E, and observed under a microscope for the pathological morphology of the liver tissue.

[2] = system: mice with LPS/D-GalN-induced acute hepatic failure; conditions: for Catalase (CAT) / Glutathione (GSH) / Malondialdehyde (MDA) / Superoxide dismutase (SOD): liver tissue homogenate
Experimental: as §1
The liver tissue homogenate was detected with glutathione (GSH), superoxide dismutase (SOD), malondialdehyde (MDA) and catalase (CAT) kits. The experiment followed the instructions of kits available from Nanjing Jiancheng Bioengineering Institute.
(§2) All experimental data were analyzed by a Graphpad Prism 7.0 software. Statistical analysis between the two groups was conducted by a t test. Variance analysis was conducted by Ordinary one-way ANOVA. A Multiple Comparison method was used for conducting pairwise comparison among multiple groups. When the P value was <0.05, it was considered that there was statistical difference among the data of each group.

[3] = system: mice with LPS/D-GalN-induced acute hepatic failure; conditions: treatment group administrated with the AFG
Experimental: as §1

[4] = system: mice with LPS/D-GalN-induced acute hepatic failure; conditions: for Aspartate transferase (AST) / Alanine transferase (ALT): serum, 6 hours after modeling
Experimental: as §1
Plasma was taken, and determined with alanine transaminase (GPT) and aspartate transferase (GOT) kits. The experiment followed the instructions of the kits available from Nanjing Jiancheng Bioengineering Institute.
as §2

[5] = system: mice with LPS/D-GalN-induced acute hepatic failure; remark: listed apart in the source
Experimental: as §1
The in vitro liver tissue was spread on a white paperboard, observed for the appearance of the liver tissue, and photographed.

[6] = system: mice with acute hepatitis/hepatic failure caused by LPS/D-GalN; conditions: through a TLR4 signaling pathway; International Immunopharmacology, 2018, 61:266-276; cited from earlier work
[7] = groups with medium and high doses of the AFG, P<0.05
[8] = AFG 25 mg/kg by gavage for 3 days before LPS/D-GalN
[9] = AFG 50 mg/kg by gavage for 3 days before LPS/D-GalN
[10] = AFG 100 mg/kg by gavage for 3 days before LPS/D-GalN
[11] = group with the high dose of the AFG, P<0.01

Structure (SMILES): N=C(N)NCCC[C@H](NCC(=O)[C@@H](O)[C@H](O[C@H]1O[C@H](CO)[C@@H](O)[C@H](O)[C@H]1O)[C@H](O)CO)C(=O)O [AFG, argininyl fructosy glucose]
- H&E stained liver sections compared with the model group ([1]; group with the high dose of the AFG): the cells had relatively complete structures
- H&E stained liver sections compared with the model group ([1]; group with the medium dose of the AFG): cellular necrosis was significantly improved
- level of CAT compared with the model group [2, 7]: increased significantly
- level of MDA compared with the model group [2, 7]: increased significantly
- level of SOD compared with the model group [2, 7]: increased significantly
- Catalase (CAT) [2, 8]: 34.01 ± 2.75
- Glutathione (GSH) [2, 8]: 51.91 ± 3.29
- Malondialdehyde (MDA) [2, 8]: 133.37 ± 5.38
- Superoxide dismutase (SOD) [2, 8]: 11.48 ± 1.77
- Catalase (CAT) [2, 9]: 51.66 ± 6.19
- Glutathione (GSH) [2, 9]: 67.94 ± 3.58
- Malondialdehyde (MDA) [2, 9]: 104.00 ± 3.13
- Superoxide dismutase (SOD) [2, 9]: 20.98 ± 3.72
- Catalase (CAT) [2, 10]: 61.44 ± 8.96
- Glutathione (GSH) [2, 10]: 136.00 ± 6.90
- Malondialdehyde (MDA) [2, 10]: 94.44 ± 6.87
- Superoxide dismutase (SOD) [2, 10]: 26.54 ± 2.93
- number of apoptotic cells (TUNEL) compared with the model group [3]: significantly reduced
- improvement of acute hepatic failure caused by the combination of LPS and D-GalN ([4]; AFG in the range from 50 mg/kg to 100 mg/kg, overall conclusion): can significantly improve the acute hepatic failure
- level of ALT in the serum compared with the model group [4, 11]: significantly decreased
- level of AST in the serum compared with the model group [4, 11]: significantly decreased
- Aspartate transferase (AST) ([4]; AFG 25 mg/kg by gavage for 3 days before LPS 40 μg/kg + D-GalN 700 mg/kg i.p.): 260.52 ± 5.58
- Alanine transferase (ALT) [4, 8]: 187.45 ± 3.48
- Alanine transferase (ALT) [4, 9]: 116.13 ± 3.37
- Aspartate transferase (AST) [4, 9]: 146.43 ± 0.93
- Alanine transferase (ALT) [4, 10]: 71.90 ± 5.97
- Aspartate transferase (AST) [4, 10]: 80.48 ± 5.09
- appearance of the liver, protection effect ([5]; group protected with the high dose): the protection effect was obvious
- appearance of the liver ([5]; with the increase of the protection dose): gradually tended to be of a normal state

Structure (SMILES): CC(C)=CCC[C@](C)(O[C@@H]1O[C@H](CO)[C@@H](O)[C@H](O)[C@H]1O)[C@H]1CC[C@]2(C)[C@@H]1[C@H](O)C[C@@H]1[C@@]3(C)CC[C@H](O)C(C)(C)[C@@H]3[C@@H](O[C@@H]3O[C@H](CO)[C@@H](O)[C@H](O)[C@H]3O)C[C@]12C [ginsenoside Rg1]
- protective role on mice with acute hepatitis/hepatic failure caused by LPS/D-GalN [6]: plays a protective role
